Experimental data from patent US6013642A, “Use of estrone derivatives as steroid sulphatase inhibitors” (priority 1994, dated 2000).

Legend:
[1] = test system: mouse contact sensitisation model; assay: Contact sensitisation (oxazalone, ear swelling) in mice; type: in vivo; details: for ear swelling response (steroid alone) / normal ear swelling (steroid alone): 5 mg/kg s.c. days 0 and 4; for increase in ear thickness (steroid alone): 100 μg/mouse s.c. days 0, 4 and 5; for normal ear swelling (steroid alone): Experiment 4, FIG. 7
Protocol: 1. Contact Sensitisation (CS)
On day 0, mice were painted on their shaved right flank with 50 μl 2.5% oxazalone or vehicle (acetone 4:1 olive oil). On day 5 animals were challenged on their dorsal right ear surface with 25 μl of either 0.75% or 0.25% oxazalone. Prior to ear challenge, and 24, 48 and 72 hour post challenge ear thickness was measured using an engineer's micrometers. Ear swelling is determined as the difference in thickness prior and post challenge. The data are expressed as percentage change from the vehicle treated groups given sensitisation and challenge.
DHEA, DHEAS were administered at various times, generally at time of sensitisation (day 0) and time of challenge (day 3 or 4-DTH model, day 4 or 5-(CS-model) in order to obtain an augmentation of the immune response above non-steroid treated animals.
Different doses of the inhibitors have been used, and compared to the effect of dexamethasone as potential immunosuppressive/anti-inflammatory agents.

[2] = test system: mouse delayed type hypersensitivity model; assay: Delayed type hypersensitivity (SRBC, footpad swelling) in the mouse; type: in vivo; details: FIG. 11; 5 mg/kg s.c.; 24 h post challenge
Protocol: 2. Delayed Type Hypersensitivity (DTH)
On day 0, animals were injected intravenously with 10^6 washed SRBC in 0.1 ml saline. Four days later animals were challenged in the right hind footpad with 10^6 washed SRBC in 50 μl saline. Footpad thickness is measured prior to challenge, 24, 48 and 72 hours post challenge using calipers. Footpad swelling is determined as the difference in thickness prior and post challenge. The data are expressed as percentage change from the vehicle treated groups given sensitisation and challenge.
Animals were randomised into 10 groups (n=7-8) and steroids given on day 0 and 4.
Steroids were given on day 0 and 3 subcutaneously. Response at 24 h post challenge. Results given as mean±sem. $, *p<0.05 ANOVA.

[3] = test system: mouse contact sensitisation model; assay: Cellular infiltrate (anti-CD3 / anti-Mac-1 positive cells) in challenged ears, contact sensitisation; type: in vivo, mice; details: Experiment 7, FIG. 10; DHEAS 5 mg/kg days 0 and 5; 24 h following challenge
Protocol: Animals were randomised into 7 groups (n=7-10) and steroids given on days 0 and 5. At 24 h following challenge, ears were removed, fixed and stained with either an anti-CD3 (T-cells) or anti-Mac-1 (monocytes/macrophages) antibody and the number of positive cells counted in 10 random fields.

carrageenan pleurisy = assay: Carrageenan pleurisy; type: in vivo, Wistar Rats; details: FIG. 14; DEX 1 mg/kg p.o. at T=-1 h; six hours
Protocol: Wistar Rats were anaesthetised and given intra-pleural injections of 0.5% carrageenan in saline at time 0. Six hours later the animals were killed and pleural cavity lavaged with 1 ml. citrated saline. Volume of fluid exudate and exudate cell concentration were measured. Animals were randomised to 5 treatment groups (n=6).

[4] = Metabolites Experiment 3, FIG. 17
[5] = Experiment 1, FIG. 4, 48 post challenge
[6] = Experiment 2, FIG. 5, 100 μg/mouse s.c. days 0 and 5, 24 h post-challenge

SMILES | ear swelling response (steroid alone) [1, 4] | foot swelling response (steroid alone) [2] | increase in ear thickness (steroid alone) [1, 5] | ear swelling response [1, 6] | normal ear swelling (steroid alone) [1] | also measured
CC12CCC(OS(=O)(=O)O)CC1=CCC1C2CCC2(C)C(O)CCC12 (stereo not drawn) [AEDS] | stimulatory response | – | – | – | – | ear swelling response ([1]; Metabolites Experiment 2, FIG. 16, AEDS 0.0005-5 mg/kg s.c. days 0 and 4): can augment the ear swelling response; dose for augmentation of ear swelling, less than seen with DHEAS ([1]; Metabolites Experiment 2, FIG. 16, relative to DHEAS): at least 1000 fold; substrate for the sulphatase enzyme in vivo [1, 4]: can serve as a physiological substrate for the sulphatase enzyme in vivo
CN(C)S(=O)(=O)Oc1ccc2c(c1)CC[C@@H]1[C@@H]2CC[C@]2(C)C(=O)CC[C@@H]12 [CT 2210, Estrone-3-0-(N,N-dimethyl)sulphamate] | – | – | – | – | – | ear swelling, inhibitor alone ([1]; Experiment 1, FIG. 4, 2 mg/mouse s.c. days 0, 4 and 5, 48 post challenge): able to attenuate the ear swelling seen in the absence of DHEA and DHEAS; reversal of stimulatory effects of DHEA and DHEAS on ear swelling ([1]; Experiment 1, FIG. 4, inhibitor 2 mg/mouse with DHEA or DHEAS 100 μg/mouse s.c. days 0, 4 and 5, 48 post challenge): able to reverse the stimulatory effects of either DHEA and DHEAS
C[C@]12CC[C@H](O)CC1=CC[C@@H]1[C@@H]2CC[C@]2(C)C(=O)CC[C@@H]12 [DHEA, Dehydroepiandrosterone] | – | clearly pro-immune (or pro-inflammatory) | augmented the normal increase in ear thickness | significantly augmented the response | augmented the normal ear swelling | ear swelling response ([1]; Metabolites Experiment 1, FIG. 15, DHEA 0.005-5 mg/kg, AED 0.05-5 mg/kg s.c. days 0 and 4): can augment the ear swelling response
C[C@]12CC[C@H](OS(=O)(=O)O)CC1=CC[C@@H]1[C@@H]2CC[C@]2(C)C(=O)CC[C@@H]12 [DHEAS, DHEA sulphate] | stimulatory response | clearly pro-immune (or pro-inflammatory) | augmented the normal increase in ear thickness | significantly augmented the response | augmented the normal ear swelling | immune and inflammatory cell infiltrate into challenged ears [3]: can augment both immune and inflammatory cell infiltrate into challenged ears; anti-glucocorticoid effect on ear swelling ([1]; Experiment 3, FIG. 6, DHEAS 0.0005-50 mg/kg with corticosterone 5 mg/kg s.c. days 0 and 4): functional anti-glucocorticoid effect
C[C@@H]1C[C@H]2[C@@H]3CCC4=CC(=O)C=C[C@]4(C)[C@@]3(F)[C@@H](O)C[C@]2(C)[C@@]1(O)C(=O)CO [Dexamethasone, dexamethasone] | – | – | reduced the response | inhibited | inhibited | fluid leakage (exudate) (carrageenan pleurisy): can completely inhibit fluid leakage; reduction of cellular influx (carrageenan pleurisy): 68%; degree of ear swelling ([1]; Experiment 5, FIG. 8, DEX 5 mg/kg s.c. days 0 and 4, 24 h): inhibited the degree of ear swelling
